This note sets out measurements from ChEMBL document CHEMBL1201862, “PubChem BioAssay data set” (2004).

SMILES strings stand for the structures.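 Growth conditions: 96-well plates. Treatment: test compound, 48 hours, 5 concentrations. Analysis: linear interpolation between bracketing concentrations; unreached endpoints set to highest concentration. Here, GI50 denotes the concentration required for 50% inhibition of growth.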 Activity calls are given as the source filed them. No stated cut-off is given here; in the data, active = GI50 up to about 1.1 µM and inactive = higher.

Test systems include ACHN; COLO 205; HCC 2998; HCT-116; HCT-15; HL-60; IGROV-1; K562; NCI-H226; NCI-H460; NCI-H522; OVCAR-3; RXF 393; SK-MEL-5; SK-OV-3; SNB-75; U-251; UACC-62; UO-31; SK-MEL-28.
Assay in all cases: growth of human tumour cells (NCI), 48 h

Turning to `O=C(NC1C/C(=N/O)c2c(Br)sc(Br)c21)C(F)(F)F` (stereo not given), the GI50 in the assay with ACHN is 34 µM (inactive); in the assay on COLO 205 it was 51.8 µM (inactive); in the assay with HCC 2998 it was 22.6 µM (inactive); in the assay with HCT-116 it was 17.1 µM (inactive); in the assay with HCT-15 it was 24.8 µM; in the assay with HL-60, 32.4 µM (inactive). Also, the GI50 with IGROV-1 was 94 µM (inactive); in the assay on K562 it was 20 µM (inactive); in the assay on NCI-H226, 18.4 µM (inactive); in the assay with NCI-H460 it was 25.4 µM (inactive); in the assay with NCI-H522, 26.1 µM (inactive); in the assay on OVCAR-3 it was 35.8 µM (inactive). Further, the GI50 was 11.3 µM (inactive) in the assay with RXF 393; 19.6 µM (inactive) in the assay with SK-MEL-5; 47.6 µM (inactive) with SK-OV-3; 29.5 µM (inactive) with SNB-75; 16.7 µM (inactive) in the assay on U-251; 16.9 µM (inactive) with UACC-62. For the same compound, the GI50 in the assay with UO-31 is 13.7 µM (inactive).
Turning to `C=CC(=O)NC(O)(C(=O)OCC)C(F)(F)F` (stereo not given), the GI50 in the assay with ACHN was > 100 µM (inactive); with COLO 205, > 100 µM (inactive); in the assay with HCC 2998, > 100 µM (inactive); in the assay with HCT-116, > 100 µM (inactive); in the assay with HCT-15 it was > 100 µM; in the assay on HL-60, 35 µM (inactive). Also, the GI50 with IGROV-1, in the assay on K562, with NCI-H226, with NCI-H522, with OVCAR-3 and with RXF 393 was > 100 µM (inactive) in each case. The GI50 in the assay on SK-MEL-28, in the assay with SK-MEL-5, in the assay on SK-OV-3, in the assay with SNB-75, with U-251 and in the assay on UACC-62 was > 100 µM (inactive) in each case. For the same compound, the GI50 in the assay with UO-31 was > 100 µM (inactive).
Consider `NC(Cc1c[nH]c2ccccc12)C(=O)O` (stereo not drawn) [DL-TRYPTOPHAN], for which the GI50 is > 300 µM (inactive) in the assay on COLO 205; > 300 µM (inactive) with HCC 2998; > 300 µM (inactive) in the assay on HCT-116; 64.6 µM with HCT-15; > 300 µM (inactive) in the assay on HL-60; > 300 µM (inactive) with IGROV-1. For the same compound, the GI50 is 204 µM (inactive) with K562; 30 µM (inactive) in the assay on NCI-H226; > 300 µM (inactive) with NCI-H460; > 300 µM (inactive) in the assay with NCI-H522; > 300 µM (inactive) in the assay with OVCAR-3; > 300 µM (inactive) with RXF 393. Further, the GI50 with SK-MEL-28, in the assay on SK-MEL-5, in the assay with SK-OV-3, in the assay on SNB-75, in the assay on U-251 and in the assay with UACC-62 was > 300 µM (inactive) in each case. Also, in the assay with UO-31, the GI50 is > 300 µM (inactive).
Take `CC1[C@@H]2CC=C3C4CCC5Cc6nc7c(nc6C[C@@]5(C)C4CC(=O)[C@]32CO[C@@]1(O)C(O)CC(C)(C)O)CC1CCC2C3=C[C@H]4O[C@@]5(O[C@@](C)(CO)C[C@@H]5O)C(C)[C@@]4(O)[C@]3(C)[C@@H](O)CC2[C@]1(C)C7` (stereo not given in full): the GI50 with COLO 205 is 0.015 µM (active); with HCC 2998, 0.0243 µM (active); in the assay with HCT-116, 0.023 µM (active); in the assay on HCT-15 it was 0.015 µM; in the assay on HL-60, < 0.00036 µM (active); in the assay on IGROV-1, 0.0101 µM (active). Also, the GI50 in the assay on K562 was 0.0112 µM (active); in the assay with NCI-H226 it was 0.00622 µM (active); in the assay on NCI-H460, 0.00151 µM (active); in the assay on NCI-H522 it was 0.0455 µM (active); in the assay with OVCAR-3, 0.491 µM (active); in the assay with RXF 393 it was < 0.00036 µM (active). Moreover, the GI50 is 0.0102 µM (active) in the assay with SK-MEL-5; 0.00184 µM (active) with SK-OV-3; < 0.00036 µM (active) with SNB-75; < 0.00036 µM (active) in the assay with U-251; 0.00381 µM (active) in the assay with UACC-62; 0.0259 µM (active) in the assay on UO-31.
